Read-outs that look alike come from different tables or passages of the source. Marks after values point to notes of the source that are not given here.
Key:
RS4;11 cells = assay: Cellular efficacy in Bcl-2 dependent tumor cell line RS4;11; type: cell-based, human; conditions: 10% HS
Mcl-1 = Mcl-1 (Homo sapiens, UniProt Q07820); assay: TR FRET competitive binding affinity, Mcl-1; conditions: read-out: Target Affinity TR FRET, Mcl-1
Procedure: A comparison of the binding affinity for each of the compounds was performed to determine target affinity, as measured by Time-Resolved Fluorescence Resonance Energy Transfer (TR FRET).

FL5.12-Bcl-XL cells = assay: Cellular efficacy in FL5.12 cells dependent on Bcl-XL; type: cell-based, murine; conditions: Mus musculus, 3% FBS
[1] = test system: peripheral blood immune cells and platelets; assay: Peripheral blood lymphocytes and platelets in (NZB×NZW)F1 mice, Cell Dyn hematology analyzer; type: in vivo; conditions: (NZB×NZW)F1 mice, four days, orally every day
[2] = test system: IFNα-induced (NZB×NZW)F1 lupus model; assay: IFNα-induced (NZB×NZW)F1 lupus model: proteinuria, survival, lymphopenia; type: in vivo, (NZB×NZW)F1 mice
Procedure: (§1) Treatment was initiated in a late-prophylactic mode (7 days after IFNα adenovirus). […] All treatment groups were administered treatment 7 days after adenovirus injection. Following adenovirus injection, mice were monitored weekly for proteinuria (PU) using Albustix test strips (VWR). Severe PU was defined by consecutive weekly measurements of PU≧300 mg/dl. When mice became moribund, they were sacrificed according to Institutional Animal Care and Use Committee protocols.

[3] = Exposure in IFNα-induced lupus model; type: in vivo
Procedure: as §1

H146 cells = assay: Cellular efficacy in Bcl-XL dependent tumor cell line H146; type: cell-based; conditions: Homo sapiens, NCI-H146; 10% HS
[4] = test system: spontaneous (NZB×NZW)F1 murine model of lupus; assay: Spontaneous (NZB×NZW)F1 murine model of lupus: proteinuria, survival, lymphopenia; type: in vivo, (NZB×NZW)F1 mice
From the text: (See Liu, K. and C. Mohan, What do mouse models teach us about human SLE? Clin Immunol, 2006. 119(2): p. 123-30) This model has been well-characterized with respect to the patho-physiological changes analogous to those of human SLE. […] Renal histopathological changes include severe glomerulonephritis, mesangial and peripheral proliferative changes, capillary membrane thickening, tubular atrophy, and infiltration of lymphocytes and monocytes/macrophages as in the majority of human SLE patients. These changes result in disruption of kidney function as evidenced by severe proteinuria (PU) greater than 300 mg/dL as measured by albumin sticks, followed by mortality as measured by survival. […] (See Gelfand, M. C. and A. D. Steinberg, Therapeutic studies in NZB-W mice. II. Relative efficacy of azathioprine, cyclophosphamide and methylprednisolone. Arthritis Rheum, 1972. 15(3): p. 247-52; and Ramos, M. A., et al., Modulation of autoantibody production by mycophenolate mofetil: effects on the development of SLE in (NZB×NZW)F1 mice. Nephrol Dial Transplant, 2003. 18(5): p. 878-83)
(NZB×NZW)F1 females were purchased from The Jackson Laboratory (Bar Harbor, Me., USA) and maintained in a conventional animal housing facility throughout the experiment. […] Proteinuria (PU) and survival were monitored weekly, followed by biweekly measurement of lymphocyte and platelet counts, and anti-ds DNA production. PK parameters were also measured throughout the study. Impact on IgG deposition and renal pathology were assessed at the conclusion of the study. Severe PU was defined by two consecutive weekly measurements of PU 300 mg/dl using Albustix test strips (VWR). When mice became moribund, they were sacrificed according to Institutional Animal Care and Use Committee protocols. PU and survival data were presented as Kaplan-Meyer survival curves using Graphpad Prism software and group differences were considered significant at the level of p<0.05. Histologic scores were analyzed using ANOVA analysis. Anti-ds DNA were analyzed using one-way ANOVA analysis and Tukey post-test.

renal tissue = assay: Renal histology and immunohistochemistry in spontaneous lupus nephritis mice; type: in vivo, (NZB×NZW)F1 mice
Procedure: An experiment was performed to determine the extent to which the selective Bcl-2 inhibitors infiltrated the kidney tissue. Specifically, a histologic assessment of the penetration of selective Bcl-2 inhibitors into the renal tissue of spontaneous murine model for lupus was performed. The spontaneous murine model of lupus, as described in Example 3, was used for the histological assessment described herein. The kidneys were bisected and then fixed in 10% neutral-buffered formalin or cryopreserved (snap frozen). For H&E staining, 5-μm sections from paraffin-embedded tissues were semiquantitatively scored (0-4) by an experienced pathologist for glomerulonephritis and tubular changes (dilation and casts). For IgG immunohistochemistry, 5-μm cryosections were fixed with acetone, washed, and blocked with 10% normal goat serum. Sections were then incubated with FITC-conjugated goat anti-mouse IgG (Cappel/ICN Pharmaceuticals) or negative control HRP-goat IgG (Jackson ImmunoResearch Laboratories) and coverslipped using Vectashield with 4′,6-diamidino-2-phenylindole (Vector Laboratories). Sections were evaluated for severity of IgG deposition using a semiquantitative scoring system (from 0-4). To identify for B and T cells, immunohistochemistry for CD45R (B cells) and CD3 (T cells) was completed on paraffin sections. FIGS. 6 and 7 illustrate the results of the histological assessment, and FIG. 8 illustrates the effect of selective Bcl-2 inhibitor treatment on IgG deposition, B cells, and T cells in the kidneys.

[5] = test system: peripheral blood immune cells; assay: Peripheral blood lymphocytes in C57BL/6 mice, Cell Dyn hematology analyzer; type: in vivo; conditions: for inhibition in vivo at 100 mg/kg: Mus musculus, Lymphocyte
Procedure: The effect of the Bcl-2 selective/Bcl-XL sparing compounds on peripheral blood immune cells was also evaluated in C57BL/6 mice. Mice were treated four days with individual compounds (100 mg/kg, orally every day) and cell numbers were measured with a Cell Dyn hematology analyzer.

FL5.12-Bcl-2 cells = assay: Cellular efficacy in FL5.12 cells dependent on Bcl-2; type: cell-based, murine; conditions: Mus musculus, 3% FBS
[6] = test system: cells dependent on Bcl-2 for survival; assay: Mechanism of cell killing (apoptosis hallmarks); type: cell-based
From the text: As also shown in Table 1B, additional compounds show selective binding affinity for Bcl-2 over Bcl-XL and other Bcl-2 family proteins.

[7] = Exposure in spontaneous lupus model; type: in vivo; conditions: 30 mg/kg dosing
From the text: When mice became moribund, they were sacrificed according to Institutional Animal Care and Use Committee protocols.

Chain of Mcl-1 (Q07820 whole entry): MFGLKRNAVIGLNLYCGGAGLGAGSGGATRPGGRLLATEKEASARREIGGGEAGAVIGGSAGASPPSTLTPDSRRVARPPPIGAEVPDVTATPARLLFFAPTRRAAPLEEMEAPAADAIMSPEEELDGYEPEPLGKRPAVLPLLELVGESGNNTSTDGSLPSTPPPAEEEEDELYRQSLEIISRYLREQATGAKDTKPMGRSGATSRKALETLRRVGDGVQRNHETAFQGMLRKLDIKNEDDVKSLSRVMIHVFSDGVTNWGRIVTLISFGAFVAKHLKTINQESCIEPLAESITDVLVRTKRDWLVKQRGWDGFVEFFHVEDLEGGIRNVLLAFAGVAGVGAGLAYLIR

CC1(C)CCC(CN2CCN(c3ccc(C(=O)NS(=O)(=O)c4ccc(NCC5CCOCC5)c([N+](=O)[O-])c4)c(Oc4cnc5[nH]ccc5c4)c3)CC2)=C(c2ccc(Cl)cc2)C1 [Compound 1, 4-(4-{[2-(4-chlorophenyl)-4,4-dimethylcyclohex-1-en-1-yl]methyl}piperazin-1-yl)-N-({3-nitro-4-[(tetrahydro-2H-pyran-4-ylmethyl)amino]phenyl}sulfonyl)-2-(1H-pyrrolo[2,3-b]pyridin-5-yloxy)benzamide]
EC50 (RS4;11 cells): 12 nM | Ki (Mcl-1): > 440 nM | EC50 (FL5.12-Bcl-XL cells): 261 nM | lymphocytes in peripheral blood [1]: dose dependent decrease in lymphocytes | platelet counts [1]: maintaining normal platelet counts | lymphopenia in the blood throughout treatment ([2]; 30 mg/kg): > 70% | % Mice with PU < 300 mg/dL ([2]; 30 mg/kg/day orally): 77* % | % Survival ([2]; 30 mg/kg/day orally): 82* % | onset of severe PU and survival ([2]; 30 and 100 mg/kg): significantly delayed the onset of severe PU and prolonged survival | target efficacious exposure [3]: approximately 40 μg·h/mL | EC50 (H146 cells): 3600 nM | % Mice with PU < 300 mg/dL ([4]; Week 47, 1 mg/kg daily oral): 51% | % Survival ([4]; Week 47, 1 mg/kg daily oral): 60% | % Mice with PU < 300 mg/dL ([4]; Week 47, 3 mg/kg daily oral): 50% | % Survival ([4]; Week 47, 3 mg/kg daily oral): 70% | % Mice with PU < 300 mg/dL ([4]; Week 47, 10 mg/kg daily oral): 66* % | % Survival ([4]; Week 47, 10 mg/kg daily oral): 83* % | % Mice with PU < 300 mg/dL ([4]; Week 47, 30 mg/kg daily oral): 94* % | % Survival ([4]; Week 47, 30 mg/kg daily oral): 100* % | % Mice with PU < 300 mg/dL ([4]; Week 47, 100 mg/kg daily oral): 100* % | % Survival ([4]; Week 47, 100 mg/kg daily oral): 100* % | lymphopenia in peripheral blood ([4]; spontaneous model, 30 mg/kg): 70% | lymphopenia in peripheral blood ([4]; spontaneous model, 100 mg/kg): 70% | survival ([4]; spontaneous model, 3, 10, 30 and 100 mg/kg): significantly prolonged survival | onset of severe PU ([4]; spontaneous model, reaching significance at 10, 30 and 100 mg/kg): delayed onset of severe PU in a dose-dependent fashion | IgG deposition in renal tissue (renal tissue; 30 mg/kg): decrease in IgG deposition | renal histology scores (glomerulonephritis, tubular changes, perivascular infiltrates) (renal tissue; 30 mg/kg and 100 mg/kg): statistically significant improvement | B cell and T cell numbers in renal tissue (renal tissue; 100 mg/kg): decreases in B cell and T cell numbers | renal tissue infiltrates (renal tissue; 30 or 100 mg/kg): small, discrete and less frequent | Day 1 Lymphocytes ([5]; 1 oral dose of 100 mg/kg): 1.38 ×10^6 | Day 4 lymphocytes ([5]; 4 oral doses of 100 mg/kg): 1.32 ×10^6 | inhibition in vivo at 100 mg/kg ([5]; 24 h, 1 oral dose of 100 mg/kg, read-out: Day 1 % Reduction vs. Vehicle): 83% | inhibition in vivo at 100 mg/kg ([5]; 96 h, 4 oral doses of 100 mg/kg, read-out: Day 4 % Reduction vs. Vehicle): 83% | EC50 (FL5.12-Bcl-2 cells): 4 nM | hallmarks of apoptotic cell death [6]: rapid cytochrome c release, caspase-3 and -7 activation, and membrane phosphatidylserine (PS) externalization | caspase dependence of cell killing ([6]; ablated by pan caspase inhibitor z-VAD-fmk): caspase-dependent | exposure [7]: 40000 ng·h/mL
